# According to patent publication US4870097A, “Pharmaceutical use of derivatives of tryptophan” (priority 1984, dated 1989):
# Assays:
# [1] = tested on: colon of rabbits stimulated with CCK-8; assay: Antispastic activity in the colon of rabbits stimulated with CCK-8; assay type: in vivo, rabbit; parameters: Antispastic activity, experiment 1 / Antispastic activity, experiment 2 / Antispastic activity, experiment 3: unit not given here; details: CCK 100 ng/kg; for ED50: Oryctolagus cuniculus, iv, three experiments
# Protocol: The abdomen of an anaesthetised rabbit is cut open to expose the transverse colon. A balloon full of water is inserted at the point established and connected to a pressure transducer by means of a polyethylene cannula filled with H2 O.
# The optimum sensitivity in relation to the physiological contractions is fixed and the products are administered through the femoral veins. Contractions are induced by the administration of 100 ng/kg of CCK.
# [2] = tested on: guinea pig gall bladder contracted with CCK-8; assay: Anti-CCK activity on guinea pig gall bladders in vitro; assay type: biochemical; details: CCK-8 10 ng/ml, concentration antagonising 50% of contracting effect
# In short: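 Longitudinal gall bladder strips in Krebs at 32° C, gassed with O2/CO2 95:5, were contracted with CCK-8 at 10 ng/ml and contractions recorded isometrically via force transducer. ED50 in mcg/ml is the compound concentration antagonising 50% of CCK contraction, derived by regression over at least three experiments.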
# [3] = tested on: analgesic activity of morphine; assay: Tail Flick Test: increase in the analgesic effect of morphine; assay type: in vivo, rats; details: for percentage variation in the latency of the pain sensation, 10' / percentage variation in the latency of the pain sensation, 20' / percentage variation in the latency of the pain sensation, 30' / percentage variation in the latency of the pain sensation, 45' / percentage variation in the latency of the pain sensation, 60' / percentage variation in the latency of the pain sensation, 90' / M(10'-90') average percentage variation: compound 10 mg/kg i.p. + morphine 2 mg/kg (row Morphine: alone); for percentage variation in the latency of the pain sensation, 10' / percentage variation in the latency of the pain sensation, 20' / percentage variation in the latency of the pain sensation, 30' / percentage variation in the latency of the pain sensation, 45' / percentage variation in the latency of the pain sensation, 60' / percentage variation in the latency of the pain sensation, 90': ± S.E.; for M(10'-90') average percentage variation: mean 10'-90'; for Potency ratio relative to morphine alone: rat, in vivo
# In short: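 Male non-fasted rats, 150-200 g; heat source (75 °C) on tail, latency to tail movement timed, 8 s cut-off. Measured before and 10, 20, 30, 45, 60, 90 min after analgesic dosing; percentage variation per animal, averaged over groups of five.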
Structure (SMILES),"Antispastic activity, experiment 1 ([1]; 1 mg/kg iv)","Antispastic activity, experiment 2 ([1]; 1 mg/kg iv)","Antispastic activity, experiment 3 ([1]; 1 mg/kg iv)","Antispastic activity, experiment 1 ([1]; 3 mg/kg iv)","Antispastic activity, experiment 2 ([1]; 3 mg/kg iv)","Antispastic activity, experiment 3 ([1]; 3 mg/kg iv)","Antispastic activity, experiment 1 ([1]; 10 mg/kg iv)","Antispastic activity, experiment 2 ([1]; 10 mg/kg iv)","Antispastic activity, experiment 3 ([1]; 10 mg/kg iv)",ED50 [1] [mg/kg],"Anti CCK-8 activity, ED50 [2] [µg/mL]","percentage variation in the latency of the pain sensation, 10' [3] [%]","percentage variation in the latency of the pain sensation, 20' [3] [%]","percentage variation in the latency of the pain sensation, 30' [3] [%]","percentage variation in the latency of the pain sensation, 45' [3] [%]","percentage variation in the latency of the pain sensation, 60' [3] [%]","percentage variation in the latency of the pain sensation, 90' [3] [%]",M(10'-90') average percentage variation [3] [%],Potency ratio relative to morphine alone [3],"Antispastic activity, experiment 3 ([1]; 0.3 mg/kg iv)"
O=C(N[C@@H](Cc1c[nH]c2ccccc12)C(=O)O)OCc1ccc(Cl)cc1 [Compound 2],-10.9,-16.8,-38.8,-31.4,-56.6,-41.5,-85.9,-74.4,-90.2,4.67,13.5,50.0 ± 14.9,25.0 ± 26.0,75.6 ± 17.6,23.7 ± 19.6,41.0 ± 20.3,43.6 ± 16.4,44.6,1.50,
CC(C)c1ccc(C(=O)N[C@@H](Cc2c[nH]c3ccccc23)C(=O)O)cc1 [Compound 20],-30.8,-44.2,-34.7,-36.0,-60.3,-59.0,-82.5,-100.0,,3.41,17.9,20.0 ± 12.8,33.1 ± 22.0,37.6 ± 18.9,37.5 ± 18.8,54.4 ± 19.3,33.2 ± 18.1,36.0,1.21,-12.8
